Test results taken from DBAASP.
≈ marks a conversion by molar mass, not a printed value. Where “and” joins values, the source holds several entries; their conditions need not be identical. Equal entries are not always repeated.

What was measured:
Assay in all cases: ≥ marks a high value that may be exact or a test limit, other limits are often not marked, values filed in µg/mL are converted to µM
Enterococcus faecalis = system: Enterococcus faecalis
Escherichia coli W3110 = system: Escherichia coli W3110
[1] = system: Pseudomonas aeruginosa PAK
Staphylococcus aureus = system: Staphylococcus aureus
[2] = system: Streptococcus mutans UA159
[3] = system: Streptococcus sanguinis NY101
[4] = system: Streptococcus sobrinus ATCC 33478
[5] = system: Pseudomonas aeruginosa MR3007
[6] = system: Staphylococcus aureus 930918-3
Escherichia coli D31 = system: Escherichia coli D31
[7] = system: Klebsiella pneumoniae K6 ATCC 700603
[8] = system: Salmonella enterica subsp. enterica serovar Typhimurium ATCC 700408
Escherichia coli O157:H7 = system: Escherichia coli O157:H7
[9] = system: Staphylococcus aureus 1056
Bacillus megaterium Bm11 = system: Bacillus megaterium Bm11
Candida tropicalis = system: Candida tropicalis
Mammaliicoccus lentus = system: Mammaliicoccus lentus
Micrococcus luteus = system: Micrococcus luteus
[10] = system: Phytophthora nicotianae PG344
[11] = system: Pseudomonas syringae pv. tabaci
[12] = system: Yersinia pseudotuberculosis YPIII
[13] = system: Bacillus licheniformis X39
[14] = system: Enterococcus faecalis 981
[15] = system: Escherichia coli ATCC 25922
[16] = system: Klebsiella pneumoniae 08040724
[17] = system: Psychrobacter faecalis X29
[18] = system: Rhodococcus rhodochrous X15
Serratia rubidaea X01 = system: Serratia rubidaea X01
[19] = system: Staphylococcus aureus ATCC 25923
[20] = system: Staphylococcus carnosus KHS

For `CC[C@H](C)[C@H](NC(=O)[C@H](Cc1ccccc1)NC(=O)CNC(=O)CNC(=O)CNC(=O)[C@H](Cc1ccccc1)NC(=O)[C@H](Cc1cnc[nH]1)NC(=O)[C@H](CC(C)C)NC(=O)[C@H](Cc1cnc[nH]1)NC(=O)[C@H](Cc1ccccc1)NC(=O)[C@H](Cc1cnc[nH]1)NC(=O)[C@@H](N)Cc1ccccc1)C(=O)N[C@@H](CCCCN)C(=O)N[C@@H](Cc1cnc[nH]1)C(=O)N[C@@H](Cc1ccccc1)C(=O)N[C@H](C(=O)N[C@@H](Cc1cnc[nH]1)C(=O)N[C@@H](CCCN=C(N)N)C(=O)N[C@@H](Cc1ccccc1)C(N)=O)[C@@H](C)CC` [FHFHLHFGGGFIKHFIHRF], the MIC (Enterococcus faecalis) was 26.2 µM (≈ 62.5 µg/mL), the MIC (Escherichia coli W3110) was 26.2 µM (≈ 62.5 µg/mL) and the MIC [1] was 26.2 µM (≈ 62.5 µg/mL). For the same molecule, the MIC (Staphylococcus aureus) was 52.5 µM (≈ 125 µg/mL), the MIC [2] was 13.4 µM (≈ 32 µg/mL) and the MIC [3] was 26.2 µM (≈ 62.5 µg/mL). It also gave an MIC [4] of 26.2 µM (≈ 62.5 µg/mL).

With `CC[C@H](C)[C@H](NC(=O)[C@H](CCCCN)NC(=O)[C@H](CCCCN)NC(=O)[C@H](CC(C)C)NC(=O)[C@H](CCCCN)NC(=O)[C@H](CCC(=O)O)NC(=O)[C@H](CCCCN)NC(=O)[C@@H](NC(=O)[C@H](CCCCN)NC(=O)[C@H](CC(N)=O)NC(=O)[C@H](CCCN=C(N)N)NC(=O)[C@H](Cc1ccccc1)NC(=O)[C@H](CCCCN)NC(=O)[C@H](CCCN=C(N)N)NC(=O)[C@H](CC(C)C)NC(=O)[C@H](CCCN=C(N)N)NC(=O)[C@H](CCCCN)NC(=O)[C@H](CCCN=C(N)N)NC(=O)[C@H](CC(C)C)NC(=O)CN)[C@@H](C)CC)C(=O)NCC(=O)O` [GLRKRLRKFRNKIKEKLKKIG] the MIC [5] was 0.27 µM and 0.34 µM and the MIC [6] was 0.69 µM and 0.84 µM.

In the case of `CC[C@H](C)[C@H](NC(=O)[C@H](Cc1ccc(O)cc1)NC(=O)[C@@H](NC(=O)[C@@H]1CCCN1C(=O)[C@H](CCCN=C(N)N)NC(=O)[C@H](CC(N)=O)NC(=O)[C@H](CC(N)=O)NC(=O)CN)C(C)C)C(=O)N1CCC[C@H]1C(=O)N[C@@H](CCC(N)=O)C(=O)N1CCC[C@H]1C(=O)N[C@@H](CCCN=C(N)N)C(=O)N1CCC[C@H]1C(=O)N1CCC[C@H]1C(=O)N[C@@H](Cc1cnc[nH]1)C(=O)N1CCC[C@H]1C(=O)N[C@@H](CC(C)C)C(N)=O` [GNNRPVYIPQPRPPHPL], the MIC (Escherichia coli D31) is reported as ≥ 65.6 µM, the MIC [7] is reported as ≥ 32.8 µM and the MIC [8] is reported as ≥ 32.8 µM.

Molecule `CC[C@H](C)[C@@H]1NC(=O)[C@H](CCCN=C(N)N)NC(=O)[C@H](CC(C)C)NC(=O)CNC(=O)[C@@H]2CSSC[C@@H]3NC(=O)[C@H](CC(C)C)NC(=O)CNC(=O)[C@H](CC(C)C)NC(=O)[C@H](Cc4ccccc4)NC(=O)[C@H](CCCN=C(N)N)NC(=O)[C@H](CO)NC(=O)[C@@H]4CCCN4C(=O)[C@H](Cc4ccccc4)NC(=O)[C@H](CC(N)=O)NC(=O)[C@H](CSSC[C@@H](C(=O)N[C@@H](CO)C(=O)N[C@@H](CCCN=C(N)N)C(=O)N[C@H](C(=O)N[C@@H](Cc4c[nH]c5ccccc45)C(=O)N[C@H](C(=O)O)C(C)C)C(C)C)NC(=O)[C@H](CSSC[C@H](NC(=O)[C@H](CCC(N)=O)NC(=O)[C@H](C)NC(=O)[C@H](CCC(=O)O)NC(=O)[C@H](CC(N)=O)NC(=O)[C@@H](NC(=O)[C@@H]4CCCN4C(=O)[C@@H](N)CC(C)C)C(C)C)C(=O)N[C@@H](CCCN=C(N)N)C(=O)N[C@@H](CCC(N)=O)C(=O)N[C@@H](C(C)C)C(=O)NCC(=O)NCC(=O)N[C@@H](Cc4ccc(O)cc4)C(=O)N2)NC(=O)[C@@H]2CCCN2C(=O)[C@H](Cc2cnc[nH]2)NC(=O)[C@H](CC(N)=O)NC(=O)[C@H](CCCN=C(N)N)NC(=O)[C@H]([C@@H](C)O)NC3=O)NC1=O` [LPVNEAQCRQVGGYCGLRICNFPSRFLGLCTRNHPCCSRVWV] has an MIC (Escherichia coli O157:H7) of 2.53 µM (≈ 12 µg/mL) and an MIC [9] of 2.41 µM (≈ 11.5 µg/mL).

For `C[C@H](NC(=O)[C@@H](N)CO)C(=O)N1CCC[C@H]1C(=O)N[C@@H](CCCN=C(N)N)C(=O)NCC(=O)N[C@H]1CSSC[C@@H](C(=O)N[C@@H](CCCCN)C(N)=O)NC(=O)[C@@H]2CCCN2C(=O)[C@H](CCCCN)NC(=O)[C@@H]2CCCN2C(=O)[C@@H]2CCCN2C(=O)[C@H](Cc2ccc(O)cc2)NC(=O)[C@H](CO)NC(=O)[C@H](CCCCN)NC(=O)[C@H]([C@@H](C)O)NC(=O)[C@H](Cc2c[nH]c3ccccc23)NC1=O` [SAPRGCWTKSYPPKPCK], the MIC (Bacillus megaterium Bm11) was 3 µM (≈ 5.71 µg/mL), the MIC (Candida tropicalis) was 7.4 µM (≈ 14.1 µg/mL) and the MIC (Mammaliicoccus lentus) was 7 µM (≈ 13.3 µg/mL). The MIC (Micrococcus luteus) was 5 µM (≈ 9.52 µg/mL), the MIC [10] was ≥ 32 µM and the MIC [11] was ≥ 80 µM. The MIC [12] was 9 µM (≈ 17.1 µg/mL).

In the case of `CC[C@H](C)[C@H](NC(=O)[C@H](CO)NC(=O)[C@H](Cc1ccccc1)NC(=O)[C@H](CC(C)C)NC(=O)[C@@H](N)CO)C(=O)N[C@@H](Cc1ccccc1)C(=O)N[C@@H](CCCCN)C(=O)N[C@H](C(=O)N[C@@H](C)C(=O)N[C@@H](C)C(=O)N[C@@H](CCCCN)C(=O)N[C@@H](Cc1ccccc1)C(=O)N[C@H](C(=O)NCC(=O)N[C@@H](CCCCN)C(=O)N[C@@H](CC(N)=O)C(=O)N[C@@H](CC(C)C)C(=O)N[C@@H](CC(C)C)C(=O)N[C@@H](CCCCN)C(=O)N[C@@H](CCC(N)=O)C(=O)N[C@@H](C)C(=O)NCC(=O)N[C@@H](CCCCN)C(=O)N[C@@H](C)C(=O)NCC(=O)N[C@@H](CC(C)C)C(=O)N[C@@H](CCC(=O)O)C(=O)N[C@H](C(=O)N[C@@H](CC(C)C)C(=O)N[C@@H](C)C(=O)N[C@H]1CSSC[C@@H](C(=O)O)NC(=O)[C@H](CCC(=O)O)NC(=O)[C@H](CC(N)=O)NC(=O)[C@H](CCCCN)NC(=O)[C@H](C)NC(=O)[C@H](CCCCN)NC1=O)[C@@H](C)O)C(C)C)[C@@H](C)O` [SLFSIFKTAAKFVGKNLLKQAGKAGLETLACKAKNEC], the MIC [13] is reported as 9 µM (≈ 35.3 µg/mL), the MIC [14] is reported as 19 µM (≈ 74.6 µg/mL) and the MIC [15] is reported as 75 µM (≈ 295 µg/mL). The MIC [16] was ≥ 150 µM, the MIC [17] was 4.5 µM (≈ 17.7 µg/mL) and the MIC [18] was 1.2 µM (≈ 4.71 µg/mL). For the same molecule, the MIC (Serratia rubidaea X01) was 1.2 µM (≈ 4.71 µg/mL), the MIC [19] was 9 µM (≈ 35.3 µg/mL) and the MIC [20] was 1.2 µM (≈ 4.71 µg/mL).
